# Reference: ChEMBL document CHEMBL5137025, “Tuberculosis Drug Discovery: Challenges and New Horizons” (J Med Chem, 2022)
# Experiments:
# [1] = system: Mycobacterium tuberculosis; type: functional; settings: H37Rv
# [2] = Aqueous solubility of compound in PBS at pH 7.4 incubated for 1 hr; type: physicochemical
# [3] = system: Mycobacterium tuberculosis; assay: Antibacterial activity against Mycobacterium tuberculosis in acute Mtb infection BALB/c mouse model assessed as reduction in log10 CFU in lungs at 100 mg/kg for 3 weeks; type: functional
# [4] = system: Mycobacterium tuberculosis; assay: microbe, parasite or virus in culture; settings: H37Rv
# Description: Antibacterial activity against Mycobacterium tuberculosis H37Rv assessed as inhibition of bacterial growth
# [5] = system: Mycobacterium tuberculosis; type: functional; settings: H37Rv, 168 h, time 7 day
# [6] = system: Mycobacterium tuberculosis; type: functional, H37Rv; settings: dose 25 mg/kg; route po; time 8 weeks
# [7] = system: Mycobacterium tuberculosis; assay: Antibacterial activity against Mycobacterium tuberculosis Erdman in acute Mtb infection BALB/c mouse model assessed as reduction in log10 CFU in lungs at 150 mg/kg, po via gavage daily for 4 weeks; type: functional
# [8] = system: A549; assay: Cytotoxicity against human A549 cells; type: functional
# [9] = Absolute oral bioavailability in overnight fasted Sprague-Dawley rat at 5 mg/kg measured for 0.25 to 24 hrs; type: ADME, organism-based; settings: in vivo, time 0.25-24 hrs
# [10] = Half life in overnight fasted Sprague-Dawley rat at 5 mg/kg measured for 0.25 to 24 hrs; type: ADME, organism-based; settings: in vivo, time 0.25-24 hrs
# [11] = AUC in overnight fasted Sprague-Dawley rat at 5 mg/kg measured for 0.25 to 24 hrs; type: ADME, organism-based; set-up: time upper 24 hrs, dose 5 mg/kg, time lower 0.25 hrs; settings: in vivo
# [12] = Protein binding in human plasma; type: ADME, cell-free; settings: read-out: PPB (converted)
# [13] = Solubility of the compound; type: physicochemical
# [14] = system: Mycobacterium tuberculosis; type: functional; settings: H37Rv, 120 h, time 5 day
# [15] = system: Mycobacterium tuberculosis; type: functional, H37Rv
# [16] = system: Mycobacterium tuberculosis; type: functional, H37Rv; settings: dose 50 mg/kg/day; route po; time <= 28 day
# [17] = system: A549; assay: Potency index, ratio of SKLB-TB1001 to test compound CC50 for cytotoxicity against human A549 cells; type: functional
# [18] = system: Mycobacterium tuberculosis; assay: Bactericidal activity against Mycobacterium tuberculosis H37Rv in chronic Mtb infection BALB/c mouse model assessed as log10 CFU kill at 20 mg/kg, po qd via gavage measured after 4 weeks; type: functional
# [19] = system: Mycobacterium tuberculosis; assay: Antibacterial activity against Mycobacterium tuberculosis Erdman in acute Mtb infection C57BL/6-IFN-gamma-tm1Ts KO mouse model assessed as reduction in log10 CFU in lungs at 50 mg/kg, po qd for 9 consecutive days; type: functional
# [20] = system: HepG2; assay: Cytotoxicity against human HepG2 cells assessed as reduction in cell viability treated for 72 hrs by Cell Titer Glo assay; type: functional
# [21] = Half life in CD-1 mouse at 5 mg/kg, iv measured for 24 hrs; type: ADME, organism-based; settings: in vivo
# [22] = Oral bioavailability in CD-1 mouse at 10 mg/kg measured for 24 hrs; type: ADME, organism-based; settings: in vivo
# [23] = system: Mycobacterium tuberculosis; assay: Antibacterial activity against Mycobacterium tuberculosis Erdman (TMCC 107) in chronic Mtb infection BALB/c mouse model assessed as reduction in log10 CFU in lungs at 100 mg/kg, po via gavage upto 8 weeks; type: functional
# [24] = system: Mycobacterium tuberculosis; assay: Antibacterial activity against Mycobacterium tuberculosis Erdman (TMCC 107) in Mtb infection C3HeB/FeJ mouse model assessed as reduction in log10 CFU in lungs at 100 mg/kg, po via gavage upto 4 weeks; type: functional
# [25] = system: Mycobacterium tuberculosis; type: functional; settings: dose 100 mg/kg; route po; time 4 weeks
# [26] = Oral bioavailability in Swiss Webster mouse at 10 mg/kg measured for 0.25 to 24 hrs by LC-MS/MS analysis; type: ADME, organism-based; settings: in vivo, time 0.25-24 hrs
# [27] = system: Mycobacterium tuberculosis; type: functional; settings: dose 50 mg/kg; route po; time 4 weeks
# [28] = system: Mycobacterium tuberculosis; type: functional; settings: H37Rv, time 14-21 day
# [29] = system: Mycobacterium tuberculosis; assay: Antibacterial activity against non-replicating Mycobacterium tuberculosis assessed as inhibition of bacterial growth; type: functional
# [30] = system: Mycobacterium tuberculosis; type: functional; settings: H37Rv, 168 h, time 7 day; remark: listed apart in the source
# [31] = system: Mycobacterium tuberculosis; assay: Antibacterial activity against Mycobacterium tuberculosis Erdman in acute Mtb infection BALB/c mouse model assessed as reduction in log10 CFU in lungs at 200 mg/kg, po daily via gavage for 3 weeks; type: functional
# [32] = Cytotoxicity against human MRC5 cells; type: toxicity, cell-based
# [33] = system: HepG2; assay: Cytotoxicity against human HepG2 cells; type: functional
# [34] = Oral bioavailability in mouse; type: ADME, organism-based; settings: in vivo
# [35] = system: Mycobacterium tuberculosis; type: functional; settings: H37Rv, 336 h, time 14 day
# [36] = system: Mycobacterium tuberculosis; type: functional, H37Rv; settings: dose 25 mg/kg; route po; time 4 weeks
structure (smiles),measurement,setting,value
Cc1ccn(C(C)c2nnc(Nc3ccn(Cc4c(F)cccc4Cl)n3)s2)n1 (stereo not drawn),MIC90,[1],1 µM
same,solubility at 1 h,[2],9 µM
CCOC(=O)NC(=O)c1ccsc1NC(=O)c1nc2ccccc2s1,Activity,[3],2.9 log10CFU
same,MIC90,[4],0.23 µM
CON=C1CCC(CN2CCN(c3nc(=O)c4cc(C(F)(F)F)cc([N+](=O)[O-])c4s3)CC2)CC1 (stereo not drawn),MIC90,[5],0.028 µM
same,Activity,[6],1.8 log10CFU
O=c1nc(N2CCC3(CC2)OCCO3)sc2c([N+](=O)[O-])cc(C(F)(F)F)cc12,Activity,[7],3.4 log10CFU
same,CC50,[8],> 231 µM
same,bioavailability,[9],44%
same,half-life,[10],1.5 h
same,AUC,[11],847 ng·h/mL
same,fraction unbound,[12],0.006
same,solubility,[13],< 2.3 µM
same,MIC90,[4],0.045 µM
CS(=O)(=O)N1N=Cc2ccc(Oc3ccc(C#N)cc3)cc2B1O,MIC90,[14],36 µM
COc1nc2ccc(Br)cc2cc1[C@@H](c1ccccc1)[C@@](O)(CCN(C)C)c1cccc2ccccc12 [BEDAQUILINE],Ratio,[15],6
same,MIC90,[4],0.022 µM
C[C@H]1COC2(CCN(c3nc(=O)c4cc(C(F)(F)F)cc([N+](=O)[O-])c4s3)CC2)O1 [BTZ-043],Activity,[16],0.6 log10CFU
same,CC50,[8],58 µM
same,Ratio,[17],4
same,bioavailability,[9],30%
same,half-life,[10],1.2 h
same,AUC,[11],899 ng·h/mL
CC(C)/N=c1\cc2n(-c3ccc(Cl)cc3)c3ccccc3nc-2cc1Nc1ccc(Cl)cc1 [CLOFAZIMINE],Activity,[18],2.2 log10CFU
CCS(=O)(=O)N1N=Cc2ccc(Oc3ccc(C(F)(F)F)cc3/C=N/O)cc2B1O,MIC90,[14],0.09 µM
same,Activity,[19],3.7 log10CFU
same,CC50,[20],> 100 µM
same,half-life,[21],3.5 h
same,bioavailability,[22],53%
same,Activity,[23],1.7 log10CFU
same,Activity,[24],1.5 log10CFU
C[C@@H]1[C@H]2C[C@@H](C[C@H]1NC(=O)c1cc3c(F)cc(F)cc3[nH]1)C2(C)C,Activity,[25],3.6 log10CFU
same,bioavailability,[26],96%
same,Activity,[27],4.7 log10CFU
Fc1ccc(-c2nnc3sc(COc4ccccc4)nn23)cc1,MIC,[4],25 µM
O=S1(=O)C[C@H](O)[C@@H](N2CCN(c3ccccc3Cl)CC2)C1,MIC,[4],0.76 µM
CC(=O)NC[C@H]1CN(c2ccc(N3CCOCC3)c(F)c2)C(=O)O1 [LINEZOLID],MIC,[28],1.5 µM
same,MIC,[4],1.5 µM
CC(=O)NC[C@H]1CN(c2ccc(N3CCSCC3)c(F)c2)C(=O)O1 [SUTEZOLID],MIC80,[4],0.28 µM
O=C(N/N=C/c1ccc(Oc2no[n+]([O-])c2S(=O)(=O)c2ccccc2)cc1)c1ccncc1,MIC90,[29],9.8 µM
same,MIC,[30],1 µM
same,Activity,[31],>6 log10CFU
same,CC50,[32],43 µM
COc1ncc(-c2ccc(Cl)cc2)cc1[C@@H](c1ccccc1)[C@@](O)(CCN(C)C)c1cccc2ccccc12,MIC90,[4],0.13 µM
FC(F)(F)Oc1ccc(Oc2ccc(CN3CCC4(CC3)OCCc3sccc34)cc2)cc1,solubility,[13],6 µM
same,CC50,[33],36 µM
same,bioavailability,[34],55%
same,MIC90,[4],0.06 µM
CCc1cc(C(N)=S)ccn1 [ETHIONAMIDE],MIC,[4],12 µM
O=C(Nc1ccc(N2CCN(c3ccccn3)CC2)c(F)c1)c1ccc2no[n+]([O-])c2c1,MIC90,[35],0.09 µM
O=c1nc(N2CCN(CC3CCCCC3)CC2)sc2c([N+](=O)[O-])cc(C(F)(F)F)cc12 [MACOZINONE],Activity,[16],1.1 log10CFU
same,Activity,[36],1 log10CFU
O=C(N/N=C/c1cccc(Oc2no[n+]([O-])c2S(=O)(=O)c2ccccc2)c1)c1ccncc1,MIC90,[29],6.7 µM
same,MIC,[30],1.6 µM
same,Activity,[31],>6 log10CFU
same,CC50,[32],30 µM
CC(C)=CCC/C(C)=C/CNCCNC1C2CC3CC(C2)CC1C3 (stereo not drawn) [SQ109],MIC,[4],1.2 µM
CCOC(=O)c1c(-c2ccccc2)oc2ccc(O)c(CN3CCC(C)CC3)c12,MIC90,[4],2.5 µM
